Assay results as given in patent US20240316012A1, “METHODS FOR TREATING LYMPHOMA” (Northwestern University, priority 2023, published 2024).

Key:
ITK-SYK^+PD-1− lymphoma = experiment: Torin-1 inhibitor treatment in vivo of lymphoma-bearing NSG mice; design: species or system mouse
From the text: FIGS. 2A-2F PD-1 represses mTOR and HIF1α in pre-malignant cells. […] White arrows indicate spleens. Color intensity represents the calculated MBq/ml uptake of ^18F-FDG. SUV, standardized uptake value ^18F-FDG, ^18F-fluordesoxyglucose. […] SUVmax denotes the maximum signal found in a single voxel across the entire tumor lesion. P=one-way ANOVA and two-sided Student's t-test. Shown are the mean±SEM and individual data points. […] CSI, chemical shift imaging. ROI, region of interest. […] P=two-sided Student's t-test. Shown are the mean±SD and individual data points. […] Spleen-derived single-cell suspensions were generated from ITK-SYK^CD4-creERT2 mice on d5 after TAM. Before fixation, anti-PD-L1 or control antibodies were added for four hours in vitro. […] On day 0, NSG mice received 1,000 ITK-SYK-expressing eGFP+ cells from an ITK-SYK^CD4-creERT2; Pdcd1^−/− mouse, FACS-sorted on d5 after TAM. Mice received 6 mg/kg Torin-1 or vehicle daily via intraperitoneal injection (n=6 mice per group) from day 3 p.i. on. P=two-sided log-rank test. FIG. 2A, Representative mice from two independent experiments. FIG. 2B, Pooled data from two independent experiments. FIG. 2C, Representative amplitudes from one experiment. FIG. 2D, Pooled data from two independent experiments. FIG. 2E, Representative data from two independent experiments with two biological replicates per group. […]

H3K27 acetylation = experiment: Flow cytometry for H3K27ac after in vitro culture with inhibitors; type: cell-based, mouse; settings: exogenous acetate 100 μM; FIG. 11E
From the text: Data are normalized to viable cell number and z-scores per metabolite. […] P=two-sided Student's t-test. The data are presented as the mean±SEM and individual data points for each animal. Cross indicates death of the animal. […] P=two-sided Student's t-test. Shown are the mean±SD and individual data points. […] Data are presented as mean±SD and individual data points. […] P=paired two-sided Student's t-test. Data are presented as the mean±SD. […] Data was normalized as in (a). P=two-sided Student's t-test. The data are presented as the mean±SEM. […] Experiment as in (h) (n=3 mice genotype). Data was normalized as in (a). P=two-sided Student's t-test. Data are presented as the mean±SD. FIGS. 3-D, Representative data from two independent experiments with n=3 biological replicates per group. FIG. 3E, Representative data from two independent experiments with two biological replicates per group. FIG. 3F, Representative data from two independent experiments. FIG. 3G, Representative data from two independent experiments with three biological replicates per group. FIG. 3H, Representative data from one experiment with four biological replicates per group. FIG. 3I, Representative data from one experiment with three biological replicates per group FIGS. 4A-4H show ACLY is a critical effector molecule downstream of PD-1. […] ITK-SYK^+ cells were FACS-sorted from ITK-[…]2 mice on d5 after TAM and 12 h anti-PD-L1 or isotype control antibody treatment (i.p., 200 μg). P=paired two-sided Student's t-test. Data are presented as the mean±SD. […] Spleen-derived single-cell suspensions were FACS-sorted from ITK-[…]2 mice on d5 after TAM and cultured in vitro overnight with anti-PD-L1 or isotype control antibodies and the PI3K inhibitors (“iPI3K”) Wortmannin (20 nM), LY294002 (20 μM), or DMSO. […] Spleen-derived lymphocytes, FACS-sorted from ITK-[…]2 and ITK-[…]2; Pdcd1^-/- mice on d5 after TAM were incubated for three days in vitro. P=two-sided Student's t-test. Data are presented as the mean±SD. […] Protein lysates were generated after 48 h in vitro culture. RNP, ribonucleoprotein. […] P=two-sided Logrank-test. […] ITK-SYK^+ cells were FACS-sorted from ITK-[…]2 (“Pdcd1^+/+”) and ITK-[…]2; Pdcd1^-/- (“Pdcd1^-/-”) mice on d5 after TAM, fixed, and processed for anti-H3K27ac ChIP-seq analysis. ChIP-seq, chromatin immunoprecipitation sequencing; TSS, transcription start site. FIG. 4B, Representative data from three independent experiments with three biological replicates per group. FIG. 4C, Representative data from two independent experiments with two biological replicates. FIGS. 4D and 4E, Representative data from 3 independent experiments. FIGS. 4F and 4G, Data from one experiment with n=5 mice per group. […] (8752, CST), and assessed by flow cytometry. […]

[1] = system: PDCD1-mutant lymphoma cells (primary CTCL); experiment: Inhibitor treatment of human cells in vitro, division index, PDCD1-mutant CTCL cells; type: cell-based; settings: 2-DG 1 mM, everolimus 0.1 μM, BMS-303141 10 μM; anti-CD3/anti-CD28 beads, 6 days; FIG. 7E
Description: (§1) FIGS. 7A-7H show ACLY dependency and AP-1 activation in human PDCD1 defective T-NHL. […] CNA, copy number aberrations. FIG. 7B GSEA for the indicated gene sets based on RNA-seq data from the 21 CTCL patients shown in (a). NES, normalized enrichment score; FDR, false discovery rate. […] P=one-way ANOVA and two-sided Student's t-test. Shown are the mean±SD and individual data points. […] FACS-sorted malignant cells were stimulated with anti-CD3/anti-CD28 beads, and 2-NBDG uptake was determined at the indicated time points. P=two-sided Student's t-test. Shown are the mean±SEM and individual data points. […] CFSE, carboxyfluorescein succinimidyl ester. P=two-sided Student's t-test. The data are presented as the mean±SEM and individual data points. […] Legend as in (5a). […] FIG. 7H GSEA for the indicated gene sets with RNA-seq data from 21 CTCL PDCD1mut” or “PDCD1 wt, and three patients with hyperprogression. NES, normalized enrichment score; FDR, false discovery rate. FIGS. 7A and 7B, Data from a single experiment with 21 patients. FIGS. 7C and 7D, Data from one experiment with three patients per group and three healthy donors. FIG. 7E, Data from one experiment with three patients and three healthy donors. FIGS. 7F and 7G, Data from one experiment with three patients per group. FIG. 7H, Data from a single experiment.
(§2) Isolation of primary human CTCL cells. This study was approved by the Northwestern University Institutional Review Board. Patients provided informed consent for inclusion in the study. […] The tumor burden for each patient was determined using well-validated clinical markers, taking whichever value was higher between Sezary cell counts or the CD26 negative cell number by clinical flow cytometry. These were analyzed in conjunction with white blood cell and absolute lymphocyte counts.
(§3) Inhibitor treatment of human cells in vitro Malignant CTCL cells and CD4^+ T cells from healthy donors were isolated as previously described. […] After 6 days, the cells were analyzed by flow cytometry, and the division index was determined using the FlowJo proliferation tool (v10.6, FlowJo LLC).

[2] = system: PD-1 wild-type tumors (primary CTCL); experiment: Inhibitor treatment of human cells in vitro, division index, PD-1 wild-type CTCL cells; type: cell-based; settings: 2-DG 1 mM, everolimus 0.1 μM, BMS-303141 10 μM; 6 days; FIG. 7E
Description: as §1, §2, §3

## CCC(=O)N1CCN(c2ccc(-n3c(=O)ccc4cnc5ccc(-c6cnc7ccccc7c6)cc5c43)cc2C(F)(F)F)CC1 [Torin-1]
ITK-SYK^+PD-1− lymphoma; NSG mice, Torin-1 intraperitoneal from day 3, 6 mg/kg daily or 10 mg per kg per day 5 days a week, vs vehicle, p=0.0057
  survival of ITK-SYK+PD-1− lymphoma-bearing mice: significantly prolonged survival
ITK-SYK^+PD-1− lymphoma; lymphoma-bearing mice, FIG. 10G
  mTOR activity within the tumor cells in vivo: blocks mTOR activity

## CC(=O)O [acetate]
H3K27 acetylation
  restoration of decreased H3K27ac signals in ACLY inhibitor-treated lymphoma cells: not able to restore

## CO[C@H]1C[C@@H]2CC[C@@H](C)[C@@](O)(O2)C(=O)C(=O)N2CCCC[C@H]2C(=O)O[C@H]([C@H](C)C[C@@H]2CC[C@@H](OCCO)[C@H](OC)C2)CC(=O)[C@H](C)/C=C(\C)[C@@H](O)[C@@H](OC)C(=O)[C@H](C)C[C@H](C)/C=C/C=C/C=C/1C [everolimus]
[1]
  viability, division and proliferation of PDCD1-mutant cancer cells (relative division index): reduced the viability and division
[2]
  response of stage-matched PD-1 wild-type tumors (relative division index): resistant
